PubChem BioAssay (NCI)
Where “and” joins values, the source holds several entries; their conditions need not be identical. Equal entries are not always repeated.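 A five-concentration, 48-hour dose response in 96-well plates underlies each endpoint, interpolated linearly between surrounding concentrations. GI50 is the concentration that inhibits growth by half. Definition used: TGI = concentration required for complete inhibition of growth.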

Legend:
Assay in all cases: NCI anticancer screen, dose series, 48 h
[1] = tested on: HCT-116 colon
[2] = tested on: M14 melanoma
[3] = tested on: NCI-H226 lung
[4] = tested on: OVCAR-8 ovarian
[5] = tested on: RXF 393 renal
[6] = tested on: SK-MEL-2 melanoma
[7] = tested on: UO-31 renal
[8] = tested on: LOX IMVI melanoma
[9] = tested on: SR leukemia

## COc1cc(C(=O)N(C(=S)OC23CC4CC(CC(C4)C2)C3)c2ccccc2)cc(OC)c1OC
[1]
  TGI: 46.4 µM
[2]
  TGI: 39.7 µM
[3]
  TGI: > 100 µM
[4]
  TGI: > 100 µM
[5]
  TGI: > 100 µM
[6]
  TGI: 32.1 µM
[7]
  TGI: 79 µM

## COC(=O)C1SC[C@H]2C(=O)N(c3ccccc3)C(=O)N12 (some centres not stated)
[1]
  TGI: > 100 µM
[8]
  TGI: > 100 µM
[2]
  TGI: > 100 µM
[3]
  TGI: > 100 µM
[4]
  TGI: > 100 µM
[5]
  TGI: > 100 µM
[6]
  TGI: > 100 µM
[9]
  TGI: > 100 µM
[7]
  TGI: > 100 µM

## COC1C(OC(C)=O)CC(=O)OC(C)C/C=C/C=C\C(O)C(C)CC(CC=O)C1OC1OC(C)C(OC2CC(C)(O)C(OC(=O)CC(C)C)C(C)O2)C(N(C)C)C1O (configuration not stated)
[1]
  TGI: > 100 µM
[8]
  GI50: 41.4 µM and > 100 µM
  TGI: > 100 µM
[2]
  TGI: > 100 µM
[3]
  TGI: > 100 µM
[4]
  TGI: > 100 µM
[5]
  TGI: > 100 µM
[6]
  TGI: > 100 µM
[9]
  TGI: 69 µM and 38.7 µM
[7]
  TGI: > 100 µM

## C#CCOC(=O)[C@@H](C)c1ccc2cc(OC)ccc2c1
[1]
  TGI: > 100 µM
[8]
  TGI: > 100 µM
[2]
  TGI: > 100 µM
[3]
  TGI: > 100 µM
[4]
  TGI: > 100 µM
[5]
  TGI: > 100 µM
[6]
  TGI: > 100 µM
[9]
  TGI: > 100 µM
[7]
  TGI: > 100 µM

## CCOC(OCC)[C@H](N)[C@@H](O)[C@@H](O)[C@H]1COC(C)(C)O1
[1]
  TGI: > 100 µM
[8]
  TGI: > 100 µM
[2]
  TGI: > 100 µM
[3]
  TGI: > 100 µM
[4]
  TGI: > 100 µM
[6]
  TGI: > 100 µM
[9]
  TGI: > 100 µM
[7]
  TGI: > 100 µM

## COC(=O)C1(Cc2ccc(C)cc2)Cc2c(C)cccc2C1=O (configuration not stated)
[1]
  TGI: 31.9 µM
[8]
  TGI: 38.6 µM
[2]
  TGI: > 100 µM
[3]
  TGI: 38.4 µM
[4]
  TGI: > 100 µM
[5]
  TGI: 40.5 µM
[6]
  TGI: 28.7 µM
[9]
  TGI: 50.9 µM
[7]
  TGI: > 100 µM

## Nc1nc(Cc2ccccc2)nc(Cc2ccccc2)c1-c1ccccc1
[1]
  TGI: 46 µM
[8]
  TGI: 51.4 µM
[2]
  TGI: > 100 µM
[3]
  TGI: 53.4 µM
[4]
  TGI: > 100 µM
[5]
  TGI: > 100 µM
[6]
  TGI: 29.8 µM
[9]
  TGI: 48.5 µM
[7]
  TGI: > 100 µM

## N#Cc1c2ccc([N+](=O)[O-])cc2c(=O)n2c1sc1ccccc12
[1]
  TGI: 38.8 µM
[8]
  TGI: > 100 µM
[3]
  TGI: 47.5 µM
[4]
  TGI: > 100 µM
[6]
  TGI: 53.6 µM
[9]
  TGI: 24.4 µM
[7]
  TGI: 72.7 µM

## COc1ccc2[nH]c3c(C)c4ncccc4c(C)c3c2c1
[1]
  TGI: > 10 µM
[2]
  TGI: 3.24 µM
[3]
  TGI: > 10 µM
[4]
  TGI: > 10 µM
[5]
  TGI: 9.39 µM
[6]
  TGI: > 10 µM
[9]
  TGI: > 10 µM

## ClCCc1ccccc1CC1=NCCc2ccccc21
[1]
  TGI: > 100 µM
[8]
  TGI: > 100 µM
[2]
  TGI: 71.5 µM
[3]
  TGI: > 100 µM
[4]
  TGI: > 100 µM
[5]
  TGI: 61.8 µM
[6]
  TGI: 39.1 µM
[9]
  TGI: > 100 µM
[7]
  TGI: 38.3 µM

## C=C(C1=CC(=O)C(C)(C)O1)[C@@H]1CC=C([C@@H]2CC[C@H]3[C@@]2(C)CC[C@H]2C(C)(C)C(=O)[C@H](OC(=O)CC(C)(O)CC(=O)O)C[C@]32C)[C@H](O)O1 (some centres not stated)
[1]
  TGI: 24 µM
[8]
  TGI: 25.9 µM
[2]
  TGI: 27 µM
[3]
  TGI: 31.3 µM
[4]
  TGI: 29.1 µM
[5]
  TGI: 17 µM
[6]
  TGI: 26.7 µM
[9]
  TGI: 49.2 µM
[7]
  TGI: 26.3 µM

## Cc1nn(C(=O)c2ccncc2)c2c1C(c1ccc([N+](=O)[O-])cc1)SC(N)=N2 (configuration not stated)
[1]
  TGI: > 100 µM
[8]
  TGI: > 100 µM
[2]
  TGI: > 100 µM
[3]
  TGI: > 100 µM
[4]
  TGI: > 100 µM
[5]
  TGI: > 100 µM
[6]
  TGI: > 100 µM
[9]
  TGI: > 100 µM
[7]
  TGI: > 100 µM

## CCOC1=NC(C(F)(F)F)(C(F)(F)F)N=C(N2CCCCC2)O1
[1]
  TGI: > 100 µM
[8]
  TGI: > 100 µM
[2]
  TGI: > 100 µM
[3]
  TGI: > 100 µM
[4]
  TGI: > 100 µM
[5]
  TGI: > 100 µM
[6]
  TGI: > 100 µM
[9]
  TGI: > 100 µM
[7]
  TGI: > 100 µM

## CO/N=C(\C(=O)[N-][n+]1cnn(CC(=O)O)c1)c1csc(N)n1
[1]
  TGI: > 10 µM
[8]
  TGI: > 10 µM
[2]
  TGI: > 10 µM
[4]
  TGI: > 10 µM
[9]
  TGI: > 10 µM

## COc1cc(C2SCC(=O)N2NC(=O)c2ccc(NC(C)=O)cc2OC)ccc1O (configuration not stated)
[1]
  TGI: > 100 µM
[8]
  TGI: > 100 µM
[2]
  TGI: > 100 µM
[4]
  TGI: 62.9 µM
[5]
  TGI: > 100 µM
[6]
  TGI: 68.6 µM
[9]
  TGI: > 100 µM
[7]
  TGI: > 100 µM

## O=C1CN(c2ccccc2)C(=O)CN1CCN1CC(=O)N(c2ccccc2)CC1=O
[1]
  TGI: > 100 µM
[2]
  TGI: > 100 µM
[4]
  TGI: > 100 µM
[5]
  TGI: > 100 µM
[9]
  TGI: > 100 µM
[7]
  TGI: > 100 µM

## CS(=O)(=O)CCC(N)P(=O)(O)O (configuration not stated)
[1]
  TGI: > 100 µM
[8]
  TGI: > 100 µM
[2]
  TGI: > 100 µM
[3]
  TGI: > 100 µM
[4]
  TGI: > 100 µM
[6]
  TGI: > 100 µM
[9]
  TGI: > 100 µM
[7]
  TGI: > 100 µM

## CN(C(=O)c1ccc(Cl)cc1)C(=S)N1CCN(c2ccccc2)CC1
[8]
  TGI: > 100 µM
[2]
  TGI: > 100 µM
[3]
  TGI: > 100 µM
[4]
  TGI: > 100 µM
[5]
  TGI: > 100 µM
[6]
  TGI: > 100 µM
[9]
  TGI: > 100 µM
[7]
  TGI: > 100 µM

## O=C(N[C@@H](Cc1ccccc1)B(O)O)[C@H](Cc1cccc2ccccc12)NC(=O)N1CCOCC1
[1]
  TGI: 0.00208 µM
[8]
  TGI: 0.00343 µM
[2]
  TGI: 0.00405 µM
[3]
  TGI: 0.00164 µM
[4]
  TGI: 0.122 µM
[5]
  TGI: 0.00379 µM
[9]
  TGI: 0.0126 µM
[7]
  GI50: 0.123 µM
  TGI: 0.482 µM

## O=C(Nc1nccs1)NS(=O)(=O)n1cnc2ccccc21
[1]
  TGI: > 100 µM
[2]
  TGI: > 100 µM
[3]
  TGI: > 100 µM
[4]
  TGI: > 100 µM
[5]
  TGI: > 100 µM
[6]
  TGI: > 100 µM
[7]
  TGI: > 100 µM

## CC1=CC(=O)/C(=C/N2C(=O)CNC2=S)C(=O)O1
[1]
  TGI: > 100 µM
[8]
  TGI: > 100 µM
[2]
  TGI: > 100 µM
[3]
  TGI: > 100 µM
[4]
  TGI: > 100 µM
[6]
  TGI: > 100 µM
[7]
  TGI: > 100 µM

## CCCCSC1=N/C(=C\c2ccc(N(C)C)cc2)C(Cl)=N1
[1]
  TGI: > 100 µM
[8]
  TGI: > 100 µM
[2]
  TGI: > 100 µM
[3]
  TGI: > 100 µM
[4]
  TGI: > 100 µM
[5]
  TGI: > 100 µM
[6]
  TGI: > 100 µM
[7]
  TGI: > 100 µM

## CC(C)(C)OC(=O)N1CCC(NC(=O)NC2CCN(C(=O)OC(C)(C)C)CC2)CC1
[1]
  TGI: > 100 µM
[8]
  TGI: > 100 µM
[2]
  TGI: > 100 µM
[4]
  TGI: > 100 µM
[6]
  TGI: > 100 µM
[9]
  TGI: > 100 µM
[7]
  TGI: > 100 µM

## C=COC(=O)N1C2CCCC(Cl)(C(C)=O)C1CC2 (configuration not stated)
[1]
  TGI: > 100 µM
[8]
  TGI: > 100 µM
[2]
  TGI: > 100 µM
[3]
  TGI: > 100 µM
[4]
  TGI: > 100 µM
[6]
  TGI: > 100 µM
[9]
  TGI: > 100 µM
[7]
  TGI: > 100 µM
